# Data taken from patent US10688086B2, “Method for treating cancer with dihydropyridine calcium antagonist” (GERMARK BIOTECHNOLOGY CO., LTD, priority 2016, dated 2020).
# Key:
# [1] = test system: HepG2 cells; assay: Western blotting of apoptosis-related proteins, HepG2; format: cell-based; details: various concentrations, 24 hours
# Description: The expression of apoptosis-related genes in each liver cancer cell line treated with various concentrations of Amlodipine for 24 hours were detected by Western blotting.
# [2] = test system: cancer patients; assay: NHIRD statistical analysis, cancer patients overall; format: in vivo, human
# Description: In this example, statistical analysis was performed on the statistics of the effects of Amlodipine in the treatment of cancers, using data from the National Health Insurance Research Database (NHIRD) covering detailed healthcare data for the population in Taiwan. Then, the diagnostic data at the time of admission in the database and the database of patients with registered major injuries were used, and statistical analysis was performed using data from patients with gastric cancer.
# The dose of Amlodipine used in Example 1 was at least 120 mg/30 days. Therefore, in order to obtain the minimum effective dose, the survival rate of patients treated with Amlodipine for days in 90 days after cancer diagnosis was further statistically analyzed.
# [3] = test system: HepG2 cells; assay: Cell invasion (Transwell, crystal violet), HepG2; format: cell-based; details: 10 μM, 72 hrs
# Description: The HepG2 and Hep3B cells were separately cultured in the insert of the Transwell plate, then added with 10 μM Amlodipine and cultured for 48 or 72 hrs. The cells on the inner surface of the insert were taken out, and the insert was placed in methanol and stained with a crystal violet solution. […] That is, Amlodipine is effective in slowing the progression of cancers, thereby achieving a therapeutic effect in the treatment of cancers.
# [4] = test system: patients having colorectal cancer; assay: NHIRD statistical analysis of death/survival with vs without Amlodipine, colorectal cancer; format: in vivo, human
# [5] = test system: patients having cervical cancer; assay: NHIRD statistical analysis of death/survival with vs without Amlodipine, cervical cancer; format: in vivo, human
# [6] = test system: liver cancer cells Hep3B; assay: Cell cycle analysis by flow cytometry, Hep3B; format: cell-based
# Description: Two liver cancer cell lines HepG2 and Hep3B were cultured. The medium used for the culture of the cells was DMEM medium containing 10% fetal bovine serum, 10,000 U/ml penicillin and 10,000 μg/ml streptomycin. The culture occurred in an environment at 37° C. with 5% CO2, and the medium was changed every 2-3 days during the culture. After the cells were cultured to about 70% confluence, they were treated with various concentrations of Amlodipine: 0, 1.5625, 3.125, 6.25, 12.5, 25, and 50 μM for various times: 48, and 72 hrs. After the experiment, the viability of each liver cancer cell line was observed and the cell viability and cell cycle were analyzed. The cell cycle of each liver cancer cell line treated under different conditions was analyzed by flow cytometry. […] Still further, each liver cancer cell line was treated with Amlodipine at a concentration of 12.5 μM for 0, 12, 24, 36 and 48 hrs, and the cell cycle was analyzed by flow cytometry.
# [7] = test system: patients having pancreatic cancer; assay: NHIRD statistical analysis of death/survival with vs without Amlodipine, pancreatic cancer; format: in vivo, human
# [8] = 24/30: Amlodipine at least 24 days within 30 days after cancer diagnosis
# [9] = 48/60: Amlodipine at least 48 days within 60 days after cancer diagnosis
# [10] = Amlodipine for 20 days within 90 days after diagnosis
# [11] = 72/90: Amlodipine at least 72 days within 90 days after cancer diagnosis
# [12] = 12.5 μM Amlodipine, treatment time 12 hr
# [13] = 12.5 μM Amlodipine, treatment time 24 hr
# [14] = 12.5 μM Amlodipine, treatment time 36 hr
# [15] = 12.5 μM Amlodipine, treatment time 48 hr
structure (smiles),measurement,setting,value
CCOC(=O)C1=C(COCCN)NC(C)=C(C(=O)OC)C1c1ccccc1Cl (centres unmarked) [Amlodipine],intracellular expression of apoptotic proteins (Western blotting),[1],results in the intracellular expression of apoptotic proteins
same,mortality of cancer patients (in words),"[2]; Table 1, at least 120 mg/30 days",effectively reduce the mortality of cancer patients
same,survival rate of cancer patients (in words),"[2]; Table 2, FIGS. 1-8, 100 mg in 90 days, follow-up 3 years, vs no Amlodipine",increase the survival rate of cancer patients
same,cell invasion (crystal violet staining),[3],lower
same,Crude HR HRs (95% C.I.),[4]; [8],0.46 (0.44-0.49)
same,Crude HR HRs (95% C.I.),[4]; [9],0.44 (0.42-0.47)
same,Crude HR HRs (95% C.I.),[4]; [10],0.76 (0.72-0.80)
same,Crude HR HRs (95% C.I.),[4]; day of treatment with Amlodipine 72/9,0.44 (0.42-0.47)
same,Crude HR HRs (95% C.I.),[5]; [8],0.50 (0.46-0.55)
same,Crude HR HRs (95% C.I.),[5]; [9],0.51 (0.46-0.56)
same,Crude HR HRs (95% C.I.),[5]; [11],0.46 (0.42-0.51)
same,Crude HR HRs (95% C.I.),[5]; [10],1.00 (0.89-1.11)
same,Proportion of cell distribution in cell cycle (%) M1:,"[6]; 1.5625 μM Amlodipine, 48 hrs",5.34%
same,Proportion of cell distribution in cell cycle (%) M2:,"[6]; 1.5625 μM Amlodipine, 48 hrs",74.88%
same,Proportion of cell distribution in cell cycle (%) M3:,"[6]; 1.5625 μM Amlodipine, 48 hrs",7.06%
same,Proportion of cell distribution in cell cycle (%) M4:,"[6]; 1.5625 μM Amlodipine, 48 hrs",12.82%
same,Proportion of cell distribution in cell cycle (%) M1:,"[6]; 3.125 μM Amlodipine, 48 hrs",6.51%
same,Proportion of cell distribution in cell cycle (%) M2:,"[6]; 3.125 μM Amlodipine, 48 hrs",73.83%
same,Proportion of cell distribution in cell cycle (%) M3:,"[6]; 3.125 μM Amlodipine, 48 hrs",6.63%
same,Proportion of cell distribution in cell cycle (%) M4:,"[6]; 3.125 μM Amlodipine, 48 hrs",13.17%
same,Proportion of cell distribution in cell cycle (%) M1:,"[6]; 6.25 μM Amlodipine, 48 hrs",6.48%
same,Proportion of cell distribution in cell cycle (%) M2:,"[6]; 6.25 μM Amlodipine, 48 hrs",72.91%
same,Proportion of cell distribution in cell cycle (%) M3:,"[6]; 6.25 μM Amlodipine, 48 hrs",6.74%
same,Proportion of cell distribution in cell cycle (%) M4:,"[6]; 6.25 μM Amlodipine, 48 hrs",13.93%
same,Proportion of cell distribution in cell cycle (%) M1:,"[6]; 12.5 μM Amlodipine, 48 hrs",16.96%
same,Proportion of cell distribution in cell cycle (%) M2:,"[6]; 12.5 μM Amlodipine, 48 hrs",67.77%
same,Proportion of cell distribution in cell cycle (%) M3:,"[6]; 12.5 μM Amlodipine, 48 hrs",6.58%
same,Proportion of cell distribution in cell cycle (%) M4:,"[6]; 12.5 μM Amlodipine, 48 hrs",8.83%
same,Proportion of cell distribution in cell cycle (%) M1:,[6]; [12],24.89%
same,Proportion of cell distribution in cell cycle (%) M2:,[6]; [12],62.89%
same,Proportion of cell distribution in cell cycle (%) M3:,[6]; [12],4.22%
same,Proportion of cell distribution in cell cycle (%) M4:,[6]; [12],8.08%
same,Proportion of cell distribution in cell cycle (%) M1:,[6]; [13],30.77%
same,Proportion of cell distribution in cell cycle (%) M2:,[6]; [13],56.25%
same,Proportion of cell distribution in cell cycle (%) M3:,[6]; [13],5.46%
same,Proportion of cell distribution in cell cycle (%) M4:,[6]; [13],7.55%
same,Proportion of cell distribution in cell cycle (%) M1:,[6]; [14],39.90%
same,Proportion of cell distribution in cell cycle (%) M2:,[6]; [14],47.73%
same,Proportion of cell distribution in cell cycle (%) M3:,[6]; [14],5.03%
same,Proportion of cell distribution in cell cycle (%) M4:,[6]; [14],7.47%
same,Proportion of cell distribution in cell cycle (%) M1:,[6]; [15],56.61%
same,Proportion of cell distribution in cell cycle (%) M2:,[6]; [15],29.59%
same,Proportion of cell distribution in cell cycle (%) M3:,[6]; [15],7.08%
same,Proportion of cell distribution in cell cycle (%) M4:,[6]; [15],6.82%
same,"cell division (cell cycle, in words)","[6]; 12.5 μM or more, 48 hrs",most cells were unable to undergo cell division
same,Proportion of cell distribution in cell cycle (%) M1:,"[6]; 25 μM Amlodipine, 48 hrs",57.32%
same,Proportion of cell distribution in cell cycle (%) M2:,"[6]; 25 μM Amlodipine, 48 hrs",28.75%
same,Proportion of cell distribution in cell cycle (%) M3:,"[6]; 25 μM Amlodipine, 48 hrs",8.02%
same,Proportion of cell distribution in cell cycle (%) M4:,"[6]; 25 μM Amlodipine, 48 hrs",6.10%
same,Crude HR HRs (95% C.I.),[7]; [8],0.62 (0.51-0.75)
same,Crude HR HRs (95% C.I.),[7]; [9],0.63 (0.51-0.77)
same,Crude HR HRs (95% C.I.),[7]; [11],0.71 (0.57-0.88)
same,Crude HR HRs (95% C.I.),[7]; [10],0.77 (0.65-0.93)
